The values below come from ChEMBL document CHEMBL4483862, “Open-source discovery of chemical leads for next-generation chemoprotective antimalarials” (2018).

This test deals with Plasmodium berghei. Nature of the test: Luciferase/luciferin-expressing antifolate-resistant parasites were used to infect a culture of HepG2 cells that were pre-incubated with compounds. Infected hepatocytes emit light due to the luciferase reaction. Assay results are presented as the percent inhibition of light emission compared to control. […]. In kind it is functional. The following applies: sporozoite; for IC90: read-out: LUCIFERASE INFECTION ASSAY - IC90.

The structures appear in SMILES notation. Bounds are passed on as bounds.

As to `CCNc1ccc(C(=O)Nc2ccc3nc(C)sc3c2)cc1[N+](=O)[O-]`, the IC90 is above 10 µM. For the same compound, the concentration for half-maximal inhibition (IC50) (HEPG2TOX_HILL_SLOPE 12, HEPG2TOX_R_SQUARED 0.881, PBLUC_HILL_SLOPE 13.1, PBLUC_R_SQUARED 0.554, read-out: LUCIFERASE INFECTION ASSAY - IC50) amounted to 8.97 µM.
On to `CCn1c2ccccc2c2cc([N+](=O)[O-])ccc21`, for which the IC90 was above 13.7 µM. The IC50 (HEPG2TOX_HILL_SLOPE 12, HEPG2TOX_R_SQUARED 0.261, PBLUC_HILL_SLOPE 16.8, PBLUC_R_SQUARED 0.0444, read-out: LUCIFERASE INFECTION ASSAY - IC50) turned out to be 13.7 µM.
Regarding `O=C(Cn1ncc(Cl)c(Cl)c1=O)N1CCN(S(=O)(=O)c2ccc3ccccc3c2)CC1`, the 90% effect concentration (IC90) was above 10 µM. Besides, the IC50 (HEPG2TOX_HILL_SLOPE 11.9, 3.77, HEPG2TOX_R_SQUARED 0.663, 0.998, PBLUC_HILL_SLOPE 2.89, PBLUC_R_SQUARED 0.527, read-out: LUCIFERASE INFECTION ASSAY - IC50) stood at 5.1 µM.
`Oc1cccc2c(NC(S)=Nc3ccc(OC(F)F)cc3)cccc12`: the IC90 is 5.27 µM. Also, the half-inhibitory concentration (IC50) (HEPG2TOX_HILL_SLOPE 12, HEPG2TOX_R_SQUARED 0.725, PBLUC_HILL_SLOPE 8.83, PBLUC_R_SQUARED 0.0853, read-out: LUCIFERASE INFECTION ASSAY - IC50) is 4.11 µM.
For the compound `O=C(Nc1ccc(F)cc1F)c1cc(Br)ccc1O`, the IC90 is 9.77 µM. Under “HEPG2TOX_HILL_SLOPE 11.9, HEPG2TOX_R_SQUARED 0.641, PBLUC_HILL_SLOPE 14.3, PBLUC_R_SQUARED 0.252, read-out: LUCIFERASE INFECTION ASSAY - IC50”, the IC50 worked out at 8.37 µM.
`Cc1ccc(C(C)C)c(OCCCNCCc2ccccc2)c1`: the IC90 came out at 9.99 µM. Also, the IC50 (HEPG2TOX_HILL_SLOPE 12.1, HEPG2TOX_R_SQUARED 0.387, PBLUC_HILL_SLOPE 24.3, PBLUC_R_SQUARED 0.56, read-out: LUCIFERASE INFECTION ASSAY - IC50) worked out at 9.13 µM.
Regarding `O=C(Nc1nc2ccc(SC(F)F)cc2s1)c1ccc(Cl)nc1`, the IC90 was above 10 µM. Besides, where the note is “HEPG2TOX_HILL_SLOPE 12.1, HEPG2TOX_R_SQUARED 0.0104, read-out: LUCIFERASE INFECTION ASSAY - IC50”, the IC50 was above 10 µM.
For the compound `CC(=O)c1ccc(-c2cnc(N)c(-c3cccc(N(C)C)c3)c2)s1`, the IC90 came to 4.08 µM. Also, the half-maximal inhibitory concentration (IC50) (HEPG2TOX_HILL_SLOPE 12.1, HEPG2TOX_R_SQUARED 0.413, PBLUC_HILL_SLOPE 8.96, PBLUC_R_SQUARED 0.727, read-out: LUCIFERASE INFECTION ASSAY - IC50) stood at 3.19 µM.
On to `O=C(Nc1ccccc1)Nc1ccc(Cl)c(Cl)c1`, for which the 90% effect concentration (IC90) worked out at 9.61 µM. The IC50 (HEPG2TOX_HILL_SLOPE 12, HEPG2TOX_R_SQUARED 0.666, PBLUC_HILL_SLOPE 4.82, PBLUC_R_SQUARED 0.734, read-out: LUCIFERASE INFECTION ASSAY - IC50) was 6.09 µM.
`O=[N+]([O-])c1ccc(O)c(CNc2ncnc3sc4c(c23)CCCC4)c1`: the IC90 was 8.25 µM. Also, the IC50 (HEPG2TOX_HILL_SLOPE 12, HEPG2TOX_R_SQUARED 0.784, PBLUC_HILL_SLOPE 5.09, 13.1, PBLUC_R_SQUARED 0.860, 0.272, read-out: LUCIFERASE INFECTION ASSAY - IC50) was determined as 7.21 µM.
As for `O=C(Nc1nonc1-c1ccc(F)cc1)c1sc2ccccc2c1Cl`, the IC90 stood at 7.47 µM. The half-inhibitory concentration (IC50) (HEPG2TOX_HILL_SLOPE 12, HEPG2TOX_R_SQUARED 0.71, PBLUC_HILL_SLOPE 5.14, PBLUC_R_SQUARED 0.171, read-out: LUCIFERASE INFECTION ASSAY - IC50) stood at 4.87 µM.
Take `COc1cccc(-c2cc3c(Nc4ccc(Oc5ccccc5)cc4)nccc3[nH]2)c1`: the IC90 turned out to be 4 µM. Further, the IC50 (HEPG2TOX_HILL_SLOPE 11.8, HEPG2TOX_R_SQUARED 0.973, PBLUC_HILL_SLOPE 14.2, PBLUC_R_SQUARED 0.35, read-out: LUCIFERASE INFECTION ASSAY - IC50) stood at 3.43 µM.
Turning to `COC(=O)c1sc(S(C)(=O)=O)c(C#N)c1-c1cccs1`, the IC90 was 5.13 µM. The IC50 (HEPG2TOX_HILL_SLOPE 11.8, HEPG2TOX_R_SQUARED 0.984, PBLUC_HILL_SLOPE 123, PBLUC_R_SQUARED 0.486, read-out: LUCIFERASE INFECTION ASSAY - IC50) worked out at 5.04 µM.
Consider `Cc1csc(NC(=O)Nc2ccc(C(F)(F)F)cc2)c1Cl`, for which the IC90 worked out at 4.43 µM. In addition, under “HEPG2TOX_HILL_SLOPE 12, HEPG2TOX_R_SQUARED 0.807, PBLUC_HILL_SLOPE 11.1, PBLUC_R_SQUARED 0.14, read-out: LUCIFERASE INFECTION ASSAY - IC50”, the IC50 was 3.63 µM.
As to `CN(C)C(=O)c1ccc(-c2cc3cnc(Nc4cccc(O)c4)cc3n2Cc2ccccc2)cc1`, the IC90 came to 9.88 µM. Moreover, for the setting “HEPG2TOX_HILL_SLOPE 12, HEPG2TOX_R_SQUARED 0.529, PBLUC_HILL_SLOPE 3.22, PBLUC_R_SQUARED 0.748, read-out: LUCIFERASE INFECTION ASSAY - IC50”, the IC50 amounted to 4.99 µM.
`COc1cccc(N/N=C2\C=CC(=O)c3ncccc32)c1`: the IC90 amounted to 3.47 µM. For the setting “HEPG2TOX_HILL_SLOPE 12.1, HEPG2TOX_R_SQUARED 0.589, PBLUC_HILL_SLOPE 8.94, PBLUC_R_SQUARED 0.612, read-out: LUCIFERASE INFECTION ASSAY - IC50”, the IC50 was found to be 2.71 µM.
In the case of `CC(C)(C)OC(=O)Nc1ccc(C(=O)Nc2cccc(S(=O)(=O)NC3CC3)c2)cc1`, the IC90 stood at 3.66 µM. Also, the IC50 (HEPG2TOX_HILL_SLOPE 12, HEPG2TOX_R_SQUARED 0.663, PBLUC_HILL_SLOPE 19.5, PBLUC_R_SQUARED 0.101, read-out: LUCIFERASE INFECTION ASSAY - IC50) was found to be 3.27 µM.
For the compound `C=C(C#N)CN1CCN(CC(=C)C#N)CC1`, the IC90 came out at 14.9 µM. Also, for the setting “HEPG2TOX_HILL_SLOPE 11.9, HEPG2TOX_R_SQUARED 0.949, PBLUC_HILL_SLOPE 23.6, PBLUC_R_SQUARED 0.193, read-out: LUCIFERASE INFECTION ASSAY - IC50”, the IC50 stood at 13.6 µM.
For the compound `CN(C)c1ccc(-c2cc3c(Nc4ccc5c(c4)OCO5)nccc3n2C)cc1`, the 90% effect concentration (IC90) was found to be 3.98 µM. Also, where the note is “HEPG2TOX_HILL_SLOPE 12.1, HEPG2TOX_R_SQUARED 0.137, PBLUC_HILL_SLOPE 13.7, PBLUC_R_SQUARED 0.564, read-out: LUCIFERASE INFECTION ASSAY - IC50”, the IC50 was 3.39 µM.
`CCN1C(=O)N(Cc2cccc(OC)c2)C(=O)C12CCN(Cc1ccc3c(c1)Cc1ccccc1-3)CC2`: the IC90 was above 6.66 µM. Further, the IC50 (HEPG2TOX_HILL_SLOPE 11.9, HEPG2TOX_R_SQUARED 0.897, PBLUC_HILL_SLOPE 2.37, PBLUC_R_SQUARED 0.639, read-out: LUCIFERASE INFECTION ASSAY - IC50) turned out to be 3.29 µM.
With `COc1ccc(CCNC(=O)c2c(S)n(-c3ccc(C)cc3)c3cccc[n+]23)cc1`, the IC90 was 9.33 µM. Moreover, the IC50 (HEPG2TOX_HILL_SLOPE 12.1, HEPG2TOX_R_SQUARED 0.69, PBLUC_HILL_SLOPE 9.57, PBLUC_R_SQUARED 0.712, read-out: LUCIFERASE INFECTION ASSAY - IC50) came out at 7.42 µM.
As for `CNc1snc(C)c1C(=O)OCc1ccc(-n2cccn2)cc1`, the IC90 amounted to 1.04 µM. Besides, the IC50 (HEPG2TOX_HILL_SLOPE 12.1, HEPG2TOX_R_SQUARED 0.465, PBLUC_HILL_SLOPE 2.29, PBLUC_R_SQUARED 0.748, read-out: LUCIFERASE INFECTION ASSAY - IC50) came to 0.4 µM.
In the case of `CCOc1ccc(C(=O)Nc2ccc(N(CC)CC)cc2)cc1Br`, the IC90 was 3.6 µM. The IC50 (HEPG2TOX_HILL_SLOPE 11.9, HEPG2TOX_R_SQUARED 0.281, PBLUC_HILL_SLOPE 11.4, PBLUC_R_SQUARED 0.34, read-out: LUCIFERASE INFECTION ASSAY - IC50) came to 2.97 µM.
For the compound `O=C(c1cc2ccccc2cc1O)N1CCN(Cc2ccc3c(c2)OCO3)CC1`, the concentration for an effect of 90% (IC90) is 8.06 µM. Moreover, the IC50 (HEPG2TOX_HILL_SLOPE 11.9, HEPG2TOX_R_SQUARED 0.324, PBLUC_HILL_SLOPE 2.98, 3.06, PBLUC_R_SQUARED 0.831, 0.940, read-out: LUCIFERASE INFECTION ASSAY - IC50) worked out at 4.38 µM.
Take `O=C(/C=C/c1cccc([N+](=O)[O-])c1)c1cccc(N2CCCC2=O)c1`: the IC90 was 4.73 µM. Moreover, the IC50 (HEPG2TOX_HILL_SLOPE 11.8, HEPG2TOX_R_SQUARED 0.912, PBLUC_HILL_SLOPE 14.2, PBLUC_R_SQUARED 0.853, read-out: LUCIFERASE INFECTION ASSAY - IC50) was determined as 4.05 µM.
In the case of `Cn1nc(-c2ccc(/C=N/NC(=O)c3ccc(Cl)cc3)s2)cc1C(F)(F)F`, the IC90 was determined as 3.23 µM. Besides, the IC50 (HEPG2TOX_HILL_SLOPE 12, HEPG2TOX_R_SQUARED 0.148, PBLUC_HILL_SLOPE 12.7, PBLUC_R_SQUARED 0.63, read-out: LUCIFERASE INFECTION ASSAY - IC50) is 2.72 µM.
Turning to `CC1CC(C)CN(Cc2ccc(C(=O)Nc3ccccc3)cc2)C1` (centres undefined), the concentration for an effect of 90% (IC90) came to 7.47 µM. Further, for the setting “HEPG2TOX_HILL_SLOPE 11.8, HEPG2TOX_R_SQUARED 0.877, PBLUC_HILL_SLOPE 2.66, PBLUC_R_SQUARED 0.557, read-out: LUCIFERASE INFECTION ASSAY - IC50”, the IC50 was 3.28 µM.

Broadly, the IC50 is the concentration needed to halve the response being measured. One may read the IC90 as the concentration at which the effect reaches the 90% level.
